In experiment [1] the test system is Staphylococcus aureus 489. Kind of experiment: broth micro-dilution MIC. It counts as cell-based. The protocol:
(§1) The MIC's were determined using a standard broth micro-dilution assay.

Experiment [2] concerns Staphylococcus aureus SA1199A. Kind of experiment: broth micro-dilution MIC. It counts as cell-based. Here is the method:
as §1
(In general: Broth dilution looks for growth in wells or tubes with falling amounts of substance.)

In the next experiment the test system is Entercoccus faecium 180. The experiment in a line: broth micro-dilution MIC. The class given is cell-based. Here is the method:
(§2) The formula I compounds have in vitro and in vivo activity against Gram-positive pathogenic bacteria. The MIC's were determined using a standard broth micro-dilution assay.

In a further experiment the test system is Entercoccus faecium 2041. The experiment in a line: broth micro-dilution MIC. The class given is cell-based. The protocol: as §2
The subject of experiment [3] is Enterococcus gallinarum 245. The experiment in a line: broth micro-dilution MIC. It counts as cell-based. To be noted: Enterococcus gallinarum, GALLINARUM
Here is the method:
as §2

For a further experiment, the system named is Escherichia coli EC14. Kind of experiment: broth micro-dilution MIC. The class given is cell-based. The protocol:
as §2

Experiment [4] has as its system Haemophilus influenzae RD. The experiment in a line: broth micro-dilution MIC. It counts as cell-based. Particulars: Haemophilus influenzae. The protocol:
as §2

For experiment [5], the system named is Staphylococcus epidermidis 270. The experiment in a line: broth micro-dilution MIC. The class given is cell-based. Here is the method:
as §2

The test system of experiment [6] is Staphylococcus haemolyticus 105. Kind of experiment: broth micro-dilution MIC. It counts as cell-based. The protocol:
as §2

Experiment [7] concerns Staphylococcus haemolyticus 415. The experiment in a line: broth micro-dilution MIC. It counts as cell-based. The protocol: as §2
Experiment [8] deals with Streptococcus pneumoniae P1. Kind of experiment: broth micro-dilution MIC. It counts as cell-based. The protocol: as §2
In a further experiment the test system is Stapylococcus aureus. The experiment in a line: mouse protection, experimentally-induced infection. The class given is in vivo. Particulars: mice infected with Stapylococcus aureus, two doses.
For a further experiment, the system named is Streptococcus pyogenes. The experiment in a line: mouse protection, experimentally-induced infection. The class given is in vivo. To be noted: mice infected with Streptococcus pyogenes, two doses.
A further experiment deals with Streptococcus pneumoniae. The experiment in a line: mouse protection, experimentally-induced infection. The class given is in vivo. To be noted: mice infected with Streptococcus pneumoniae, two doses.
The test system of experiment [9] is vancomycin-resistant enterococci. The experiment in a line: broth micro-dilution, mean geometric MIC. It counts as cell-based, Enterococcus faecium and Enterococcus faecalis. To be noted: 24 h, read-out: mean geometric MIC, Vancomycin Resistant Strains.
Experiment [10] relates to vancomycin-susceptible enterococci. Kind of experiment: broth micro-dilution, mean geometric MIC. To be noted: 24 h, read-out: mean geometric MIC, Vancomycin Sensitive Strains. The class given is cell-based, Enterococcus faecium and Enterococcus faecalis.
A further experiment relates to Pediococcus acidilacti. The experiment in a line: agar dilution MIC, lactic acid bacteria. The class given is cell-based. To be noted: Pediococcus.
The next experiment relates to Pediococcus pentosaceus. Kind of experiment: agar dilution MIC, lactic acid bacteria. The class given is cell-based. Particulars: Pediococcus pentosaceus. Background: Agar dilution tests growth on a series of plates holding different concentrations.
A further experiment deals with Leuconostoc lactis. Kind of experiment: agar dilution MIC, lactic acid bacteria. It counts as cell-based. To be noted: Leuconostoc lactis.
For experiment [11], the system named is Leuconostoc mesenteroides. Kind of experiment: agar dilution MIC, lactic acid bacteria. The class given is cell-based. To be noted: Leuconostoc mesenteroides.
Experiment [12] has as its system Leuconostoc pseudomesenteroides. Kind of experiment: agar dilution MIC, lactic acid bacteria. The class given is cell-based.
A further experiment concerns Leuconostoc citreum. The experiment in a line: agar dilution MIC, lactic acid bacteria. It counts as cell-based.
A further experiment relates to Lactobacillus confusus. The experiment in a line: agar dilution MIC, lactic acid bacteria. It counts as cell-based. To be noted: Weissella confusa.

Our source for the MIC and ED50 values is US5840684A, “Glycopeptide antibiotic derivatives” (Eli Lilly and Company, priority 1995, dated 1998).

Values after ≈ are worked out from the molar mass of the structure shown.

As for `CN[C@H](CC(C)C)C(=O)N[C@H]1C(=O)N[C@@H](CC(N)=O)C(=O)N[C@H]2C(=O)N[C@H]3C(=O)N[C@H](C(=O)N[C@H](C(=O)O)c4cc(O)cc(O)c4-c4cc3ccc4O)[C@H](O)c3ccc(c(Cl)c3)Oc3cc2cc(c3O[C@@H]2O[C@H](CO)[C@@H](O)[C@H](O)[C@H]2O[C@H]2C[C@](C)(N)[C@H](O)[C@H](C)O2)Oc2ccc(cc2Cl)[C@H]1O` [vancomycin, reference compound], the MIC in [1] was 0.125 µg/mL (≈ 0.0863 µM); in [2], 0.125 µg/mL (≈ 0.0863 µM); against Entercoccus faecium 180, above 64 µg/mL; with Entercoccus faecium 2041, 2 µg/mL (≈ 1.38 µM); in [3], 4 µg/mL (≈ 2.76 µM); against Escherichia coli EC14, above 64 µg/mL. In addition, the MIC was above 64 µg/mL in [4]; 16 µg/mL (≈ 11 µM) in experiment [5]; 16 µg/mL (≈ 11 µM) in experiment [6]; 8 µg/mL (≈ 5.52 µM) in [7]; 0.25 µg/mL (≈ 0.173 µM) in experiment [8]; 282 µg/mL (≈ 195 µM) in [9]. For the same compound, the MIC was 3.9 µg/mL (≈ 2.69 µM) in experiment [10]; 891 µg/mL (≈ 615 µM) in the experiment with Pediococcus acidilacti; 1020 µg/mL (≈ 707 µM) in the experiment with Pediococcus pentosaceus; 1020 µg/mL (≈ 707 µM) against Leuconostoc lactis; 1020 µg/mL (≈ 707 µM) in experiment [11]; above 1020 µg/mL in experiment [12]. In addition, the values for the MIC in the experiment with Leuconostoc citreum and with Lactobacillus confusus were above 1020 µg/mL and 1020 µg/mL (≈ 707 µM), respectively. The values for the ED50 in the experiment with Stapylococcus aureus, in the experiment with Streptococcus pyogenes and with Streptococcus pneumoniae were 1.2 mg/kg/2, 0.8 mg/kg/2 and 1.1 mg/kg/2, respectively.
